Assay results published in patent US9872861B2, “Methods of treatment using selective Bcl-2 inhibitors” (AbbVie Inc., priority 2010, dated 2018).
Where two headings read alike, the source gives them in different places. Marks after values point to notes of the source that are not given here.

Experiments:
H146 cells = test: Cellular efficacy in Bcl-XL dependent tumor cell line H146; assay type: cell-based; conditions: Homo sapiens, NCI-H146; 10% HS
renal tissue = test: Renal histology and immunohistochemistry in spontaneous lupus nephritis mice; assay type: in vivo, (NZB×NZW)F1 mice
Protocol: An experiment was performed to determine the extent to which the selective Bcl-2 inhibitors infiltrated the kidney tissue. Specifically, a histologic assessment of the penetration of selective Bcl-2 inhibitors into the renal tissue of spontaneous murine model for lupus was performed. The spontaneous murine model of lupus, as described in Example 3, was used for the histological assessment described herein. The kidneys were bisected and then fixed in 10% neutral-buffered formalin or cryopreserved (snap frozen). For H&E staining, 5-μm sections from paraffin-embedded tissues were semiquantitatively scored (0-4) by an experienced pathologist for glomerulonephritis and tubular changes (dilation and casts). For IgG immunohistochemistry, 5-μm cryosections were fixed with acetone, washed, and blocked with 10% normal goat serum. Sections were then incubated with FITC-conjugated goat anti-mouse IgG (Cappel/ICN Pharmaceuticals) or negative control HRP-goat IgG (Jackson ImmunoResearch Laboratories) and coverslipped using Vectashield with 4′,6-diamidino-2-phenylindole (Vector Laboratories). Sections were evaluated for severity of IgG deposition using a semiquantitative scoring system (from 0-4). To identify for B and T cells, immunohistochemistry for CD45R (B cells) and CD3 (T cells) was completed on paraffin sections. FIGS. 6 and 7 illustrate the results of the histological assessment, and FIG. 8 illustrates the effect of selective Bcl-2 inhibitor treatment on IgG deposition, B cells, and T cells in the kidneys.

IgG anti-ds DNA [1] = test: Anti-ds DNA titer by ELISA in spontaneous lupus model; assay type: in vivo, (NZB×NZW)F1 mice
Protocol: It is believed that Compound 1 triggers apoptosis of lymphocytes that are responsible for production of antibodies, which play a role in the progression of systemic lupus erythematosus, as well as Sjogren's Syndrome. […] Specifically, anti-dsDNA antibody levels were measured by ELISA and assigned arbitrary activity unit concentrations per ml relative to a standard plasma pool derived from proteinuric 9-10 month old NZB/W mice. ELISA assay was performed by coating plates with poly-L-lysine followed by calf-thymus DNA. Diluted mouse plasma was incubated and developed using anti-IgG HRP conjugated antibodies and the mean OD from duplicate wells was compared to a titrated standard curve of pooled high tittered anti-dsDNA plasma. The undiluted standard plasma pool was arbitrarily assigned a value of 1000 anti-dsDNA Units/ml. A linear regression analysis was then used to calculate the relative units of a given sample multiplied by the given dilution factor.

[2] = system: IFNα-induced (NZB×NZW)F1 lupus model; test: IFNα-induced (NZB×NZW)F1 lupus model: proteinuria, survival, lymphopenia; assay type: in vivo, (NZB×NZW)F1 mice
Protocol: Treatment was initiated in a late-prophylactic mode (7 days after IFNα adenovirus). […] All treatment groups were administered treatment 7 days after adenovirus injection. Following adenovirus injection, mice were monitored weekly for proteinuria (PU) using Albustix test strips (VWR). Severe PU was defined by consecutive weekly measurements of PU≧300 mg/dl. When mice became moribund, they were sacrificed according to Institutional Animal Care and Use Committee protocols.

[3] = system: peripheral blood immune cells; test: Peripheral blood lymphocytes in C57BL/6 mice, Cell Dyn hematology analyzer; assay type: in vivo; conditions: for inhibition in vivo at 100 mg/kg: Mus musculus, Lymphocyte
Protocol: The effect of the Bcl-2 selective/Bcl-XL sparing compounds on peripheral blood immune cells was also evaluated in C57BL/6 mice. Mice were treated four days with individual compounds (100 mg/kg, orally every day) and cell numbers were measured with a Cell Dyn hematology analyzer.

[4] = system: submandibular salivary gland; test: Salivary gland histology in spontaneous murine model of lupus; assay type: in vivo, (NZB×NZW)F1 mice
From the text: It is recognized within the art that Sjogren's Syndrome is a chronic disease state that affects the moisture-producing glands of the body, including the salivary glands of the mouth. As such, it was theorized that penetration of the selective Bcl-2 inhibitors into the salivary glands of patients with Sjogren's Syndrome could provide an effective treatment to decrease lymphocytes associated with Sjogren's Syndrome, without the dose-limiting thrombocytopenia associated with non-selective Bcl-2 inhibition. A histologic assessment of the penetration of selective Bcl-2 inhibitors into the salivary glands of spontaneous murine model for lupus was performed to test this theory. The spontaneous murine model of lupus, as described in Example 3, was used for the histological assessment described herein. Specifically, sublingual and submandibular salivary glands were fixed in 10% neutral-buffered formalin and paraffin embedded. Five μm sections were H&E stained and semiquantitatively scored (0-4) by an experienced pathologist for inflammatory cell infiltrates. Salivary gland infiltrate scoring categories: (1) 3 or fewer small periductular foci, (2) 3 or more medium sized foci, (3) several extensive foci, and (4) coalescing to diffuse infiltrates. The histologic assessment of the submandibular tissue sections is illustrated in FIG. 11.

RS4;11 cells = test: Cellular efficacy in Bcl-2 dependent tumor cell line RS4;11; assay type: cell-based, human; conditions: 10% HS
[5] = system: peripheral blood immune cells and platelets; test: Peripheral blood lymphocytes and platelets in (NZB×NZW)F1 mice, Cell Dyn hematology analyzer; assay type: in vivo; conditions: (NZB×NZW)F1 mice, four days, orally every day
FL5.12-Bcl-XL cells = test: Cellular efficacy in FL5.12 cells dependent on Bcl-XL; assay type: cell-based, murine; conditions: Mus musculus, 3% FBS
IgG anti-ds DNA [6] = test: Anti-ds DNA titer by ELISA in IFNα-accelerated lupus model; assay type: in vivo, (NZB×NZW)F1 mice; conditions: interferon-induced model, 3-30 mg/kg
Protocol: An additional experiment was performed to determine the effects of treatment with a selective Bcl-2 inhibitor on anti-DS DNA titer in the Interferon-α accelerated lupus model. Anti-dsDNA antibody levels were measured by ELISA and assigned arbitrary activity unit concentrations per ml relative to a standard plasma pool derived from proteinuric 9-10 month old NZB/W mice. ELISA assay was performed by coating plates with poly-L-lysine followed by calf-thymus DNA. Diluted mouse plasma was incubated and developed using anti-IgG HRP conjugated antibodies and the mean OD from duplicate wells was compared to a titrated standard curve of pooled high tittered anti-dsDNA plasma. The undiluted standard plasma pool was arbitrarily assigned a value of 1000 anti-dsDNA Units/ml. A linear regression analysis was then used to calculate the relative units of a given sample multiplied by the given dilution factor. The results of this experiment are illustrated in FIG. 10.

Mcl-1 = Mcl-1 (Homo sapiens, UniProt Q07820); test: TR FRET competitive binding affinity, Mcl-1; conditions: read-out: Target Affinity TR FRET, Mcl-1
Chain of Mcl-1 (Q07820 whole entry): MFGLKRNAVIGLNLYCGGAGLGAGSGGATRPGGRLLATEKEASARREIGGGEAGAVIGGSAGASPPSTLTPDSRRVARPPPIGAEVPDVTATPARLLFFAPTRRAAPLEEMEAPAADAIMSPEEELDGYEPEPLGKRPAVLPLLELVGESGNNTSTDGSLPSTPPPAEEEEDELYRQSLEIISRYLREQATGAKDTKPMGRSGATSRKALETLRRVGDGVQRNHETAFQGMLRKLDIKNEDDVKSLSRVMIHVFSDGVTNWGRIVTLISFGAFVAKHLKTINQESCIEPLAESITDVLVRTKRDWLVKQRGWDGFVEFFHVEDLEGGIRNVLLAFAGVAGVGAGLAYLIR
Protocol: A comparison of the binding affinity for each of the compounds was performed to determine target affinity, as measured by Time-Resolved Fluorescence Resonance Energy Transfer (TR FRET).

## CC1(C)CCC(CN2CCN(c3ccc(C(=O)NS(=O)(=O)c4ccc(NCC5CCOCC5)c([N+](=O)[O-])c4)c(Oc4cnc5[nH]ccc5c4)c3)CC2)=C(c2ccc(Cl)cc2)C1 [Compound 1, 4-(4-{[2-(4-chlorophenyl)-4,4-dimethylcyclohex-1-en-1-yl]methyl}piperazin-1-yl)-N-({3-nitro-4-[(tetrahydro-2H-pyran-4-ylmethyl)amino]phenyl}sulfonyl)-2-(1H-pyrrolo[2,3-b]pyridin-5-yloxy)benzamide]
H146 cells
  EC50: 3600 nM
Renal tissue; 30 mg/kg
  IgG deposition in renal tissue: decrease in IgG deposition
Renal tissue; 30 mg/kg and 100 mg/kg
  renal histology scores (glomerulonephritis, tubular changes, perivascular infiltrates): statistically significant improvement
Renal tissue; 100 mg/kg
  B cell and T cell numbers in renal tissue: decreases in B cell and T cell numbers
Renal tissue; 30 or 100 mg/kg
  renal tissue infiltrates: small, discrete and less frequent
IgG anti-ds DNA [1]; spontaneous model, 1, 3 and 10 mg/kg
  anti-ds DNA titer: no appreciable reduction
IgG anti-ds DNA [1]; spontaneous model, week 40, 30 and 100 mg/kg
  anti-ds DNA titer vs vehicle control: significantly inhibited the increase in anti-ds DNA titer
[2]; 30 mg/kg
  lymphopenia in the blood throughout treatment: > 70%
[2]; 30 mg/kg/day orally
  % Mice with PU < 300 mg/dL: 77* %
  % Survival: 82* %
[2]; 30 and 100 mg/kg
  onset of severe PU and survival: significantly delayed the onset of severe PU and prolonged survival
[3]; 1 oral dose of 100 mg/kg
  Day 1 Lymphocytes: 1.38 ×10^6
[3]; 4 oral doses of 100 mg/kg
  Day 4 lymphocytes: 1.32 ×10^6
[3]; 24 h, 1 oral dose of 100 mg/kg, read-out: Day 1 % Reduction vs. Vehicle
  inhibition in vivo at 100 mg/kg: 83%
[3]; 96 h, 4 oral doses of 100 mg/kg, read-out: Day 4 % Reduction vs. Vehicle
  inhibition in vivo at 100 mg/kg: 83%
[4]; 30 mg/kg and 100 mg/kg
  submandibular salivary gland histology scores vs untreated: statistically significant improvement
[4]; 30 mg/kg and 100 mg/kg, scale 0-4, untreated mice 3-4
  salivary gland histology score: 1-2
[4]; 30 or 100 mg/kg
  salivary gland infiltrates: small, discrete and less frequent
RS4;11 cells
  EC50: 12 nM
[5]
  lymphocytes in peripheral blood: dose dependent decrease in lymphocytes
  platelet counts: maintaining normal platelet counts
FL5.12-Bcl-XL cells
  EC50: 261 nM
IgG anti-ds DNA [6]
  anti-ds DNA titer: did not significantly inhibit
Mcl-1
  Ki: > 440 nM
